Test systems include 786-0; EKVX; HCC 2998; HCT-15; KM12; OVCAR-4; OVCAR-5; RXF 393; SF-295; SF-539; SK-MEL-2; SK-OV-3; SN12C; SR; TK-10; U-251; UACC-257; CAKI-1; NCI-H522.
What all share (assay): NCI-60 cell line screen, 48 h

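Following 48 hours of exposure in 96-well plates, responses at five concentrations were used to interpolate endpoints linearly. At the GI50, growth is halved.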 Activity calls are given as the source filed them. Cut-off read from the data, not from the text of the source: active = GI50 up to about 1.1 µM and inactive = higher. Where only a bound is given, the exact number is not on record here.

For the compound `O=C(CO)CC(=O)C(=O)Nc1ccccc1`, the GI50 in the test on 786-0 is > 100 µM (inactive); in the test with EKVX it was > 100 µM (inactive); in the test with HCC 2998, > 100 µM (inactive); in the test on HCT-15 it was over 100 µM; in the test on KM12, > 100 µM (inactive); in the test on OVCAR-4, > 100 µM (inactive). Besides, the GI50 with OVCAR-5, with RXF 393, in the test with SF-295, in the test on SF-539, in the test on SK-MEL-2 and in the test on SK-OV-3 was > 100 µM (inactive) in each case. The GI50 with SN12C, with SR, with TK-10, in the test with U-251 and in the test with UACC-257 was > 100 µM (inactive) throughout.
As for `CCCCCCCCCCCCCCCC(=O)OCC1OC(n2cc(F)c(=O)[nH]c2=O)C(NC(=O)OCc2ccccc2)C(O)C1O` (configuration not stated), the GI50 in the test on 786-0 is 18.7 µM (inactive); in the test with CAKI-1 it was 16.3 µM (inactive); with EKVX it was 22 µM (inactive); in the test with HCC 2998 it was 16.3 µM (inactive); in the test on HCT-15 it was 18.5 µM; in the test with KM12, 20.8 µM (inactive). Further, the GI50 in the test with OVCAR-4 is 20 µM (inactive); in the test with OVCAR-5, 19.1 µM (inactive); in the test on SF-295 it was 16.9 µM (inactive); in the test with SF-539, 16.4 µM (inactive); in the test on SK-MEL-2, 16 µM (inactive); in the test with SK-OV-3, 24.1 µM (inactive). Also, the GI50 is 19.9 µM (inactive) with SN12C, 19.6 µM (inactive) in the test on TK-10 and 15.9 µM (inactive) with U-251.
In the case of `O=C1C2Cc3ccccc3CN2C(=O)N1CCN1CCCC1` (configuration not stated), the GI50 with 786-0 was > 100 µM (inactive); with CAKI-1, 64.1 µM (inactive); in the test on HCC 2998 it was > 100 µM (inactive); in the test on HCT-15, over 100 µM; in the test with KM12 it was > 100 µM (inactive); with NCI-H522, > 100 µM (inactive). Moreover, the GI50 in the test with OVCAR-4, in the test with OVCAR-5, in the test with SF-295, with SF-539, in the test with SK-MEL-2 and in the test on SN12C was > 100 µM (inactive) throughout. Moreover, the GI50 in the test on TK-10 and with U-251 was > 100 µM (inactive) throughout.
Turning to `O=c1/c(=C/c2ccc3c(c2)OCO3)sc2nnc(-c3ccco3)n12`, the GI50 with 786-0, in the test on CAKI-1, in the test on EKVX, in the test on HCC 2998, in the test on KM12 and in the test on NCI-H522 was > 100 µM (inactive) in each case. For the same compound, the GI50 in the test with OVCAR-4 was > 100 µM (inactive); in the test on OVCAR-5, > 100 µM (inactive); in the test with RXF 393, > 100 µM (inactive); in the test on SF-295 it was 82 µM (inactive); in the test on SF-539 it was > 100 µM (inactive); with SK-MEL-2 it was > 100 µM (inactive). Moreover, the GI50 in the test with SK-OV-3 is > 100 µM (inactive); in the test on SN12C, > 100 µM (inactive); in the test on TK-10 it was > 100 µM (inactive); with U-251, > 100 µM (inactive); in the test with UACC-257, 15.3 µM (inactive).
As to `CSc1nc(C)cc(=O)n1C1OC(COC(C)=O)C(OC(C)=O)C(OC(C)=O)C1OC(C)=O` (configuration not stated), the GI50 is > 100 µM (inactive) in the test on 786-0; > 100 µM (inactive) with EKVX; > 100 µM (inactive) in the test with HCC 2998; over 100 µM in the test on HCT-15; > 100 µM (inactive) with KM12; > 100 µM (inactive) in the test on NCI-H522. Besides, the GI50 is > 100 µM (inactive) in the test with OVCAR-4; > 100 µM (inactive) in the test on OVCAR-5; > 100 µM (inactive) in the test on SF-295; 53.3 µM (inactive) in the test with SK-MEL-2; > 100 µM (inactive) in the test on SK-OV-3; > 100 µM (inactive) in the test with SN12C. Moreover, the GI50 with SR, with TK-10, in the test with U-251 and with UACC-257 was > 100 µM (inactive) throughout.
For `C=CCCC(O)c1cc(C)c(O)c(C)c1` (configuration not stated), the GI50 with 786-0 is > 100 µM (inactive); with EKVX it was > 100 µM (inactive); in the test on HCC 2998, > 100 µM (inactive); with HCT-15 it was over 100 µM; with KM12, > 100 µM (inactive); with NCI-H522, > 100 µM (inactive). Further, the GI50 is > 100 µM (inactive) with OVCAR-5; 53.3 µM (inactive) in the test on RXF 393; > 100 µM (inactive) with SF-295; > 100 µM (inactive) in the test on SF-539; > 100 µM (inactive) in the test with SK-MEL-2; > 100 µM (inactive) in the test with SK-OV-3. Further, the GI50 with SN12C, in the test with TK-10, in the test with U-251 and in the test on UACC-257 was > 100 µM (inactive) each time.
Take `COc1ccc(C[P+]2(c3ccccc3)CCCCC2)cc1.O=[N+]([O-])c1ccc(C[P+]2(c3ccccc3)CCCCC2)cc1.[O-][Cl+3]([O-])([O-])[O-].[O-][Cl+3]([O-])([O-])[O-]`: the GI50 with 786-0 was > 100 µM (inactive); in the test with CAKI-1, > 100 µM (inactive); in the test with EKVX, > 100 µM (inactive); with HCC 2998, > 100 µM (inactive); in the test on HCT-15, over 100 µM; with KM12, 75.5 µM (inactive). The GI50 in the test with OVCAR-4 was > 100 µM (inactive); in the test with OVCAR-5, > 100 µM (inactive); in the test with RXF 393 it was 95.9 µM (inactive); in the test with SF-295 it was > 100 µM (inactive); in the test with SF-539, > 100 µM (inactive); in the test with SK-MEL-2 it was > 100 µM (inactive). The GI50 in the test on SK-OV-3 is > 100 µM (inactive); with SN12C, 70 µM (inactive); with TK-10, > 100 µM (inactive); with U-251, > 100 µM (inactive); in the test on UACC-257, 29.6 µM (inactive).
With `Cc1nnc(N/N=C(/C(=O)C(C#N)c2ccc(Cl)cc2)C(C#N)c2ccc(Cl)cc2)n1N` (configuration not stated), the GI50 in the test on 786-0 was 17.4 µM (inactive); with CAKI-1, 20.8 µM (inactive); with EKVX it was > 10 µM (inactive); in the test with HCC 2998, 19.4 µM (inactive); with HCT-15, 19.7 µM; in the test with KM12, 18.7 µM (inactive). For the same compound, the GI50 is 16.6 µM (inactive) in the test with NCI-H522; 18.1 µM (inactive) in the test with OVCAR-4; 18.5 µM (inactive) with OVCAR-5; 17.7 µM (inactive) in the test with RXF 393; 15.7 µM (inactive) in the test on SF-295; 18.2 µM (inactive) with SK-MEL-2. Further, the GI50 in the test with SN12C was 19.3 µM (inactive); in the test on TK-10, 20 µM (inactive); in the test with UACC-257, 17.4 µM (inactive).
Turning to `Clc1ccc2c(c1)C1C(CO2)C(c2ccccc2)=NN1c1ccccc1` (configuration not stated), the GI50 is 24.9 µM (inactive) in the test with 786-0; 11.8 µM (inactive) in the test on EKVX; 43.8 µM (inactive) with HCC 2998; 31.6 µM (inactive) in the test with KM12; > 100 µM (inactive) in the test on OVCAR-5; 24.2 µM (inactive) in the test on RXF 393. The GI50 was 35.6 µM (inactive) in the test with SF-295; 26.9 µM (inactive) in the test with SK-MEL-2; > 100 µM (inactive) in the test with SK-OV-3; 82.8 µM (inactive) with TK-10; 34.8 µM (inactive) in the test with U-251; 49.7 µM (inactive) in the test with UACC-257.
For `CN1/C(=N\c2ccccc2)S/C1=N/c1ccccc1`, the GI50 was > 100 µM (inactive) in the test on 786-0; 60.1 µM (inactive) in the test with EKVX; 66.8 µM (inactive) with HCC 2998; 90.8 µM with HCT-15; 52.2 µM (inactive) in the test with KM12; 14.4 µM (inactive) in the test on NCI-H522. Moreover, the GI50 in the test on OVCAR-4 was 59.7 µM (inactive); in the test on OVCAR-5 it was > 100 µM (inactive); in the test on SF-295, > 100 µM (inactive); with SF-539, > 100 µM (inactive); with SK-MEL-2 it was 27.2 µM (inactive); with SK-OV-3, > 100 µM (inactive). Moreover, the GI50 with SR was 95.7 µM (inactive); in the test with TK-10 it was > 100 µM (inactive); in the test with U-251, > 100 µM (inactive); in the test on UACC-257, > 100 µM (inactive).
For `COc1ccc(/C=C/CO)cc1OC`, the GI50 is > 100 µM (inactive) with 786-0; > 100 µM (inactive) with EKVX; > 100 µM (inactive) with HCC 2998; over 100 µM in the test with HCT-15; > 100 µM (inactive) in the test on KM12; > 100 µM (inactive) in the test on OVCAR-5. Further, the GI50 with RXF 393, in the test with SF-295, in the test with SF-539, with SK-MEL-2, in the test on SK-OV-3 and with SN12C was > 100 µM (inactive) throughout. The GI50 in the test with SR, in the test on TK-10, with U-251 and with UACC-257 was > 100 µM (inactive) in each case.
With `C=C1C2C[C@@H]3OC4CC5O[C@]6(CC5OC4C(C)C3OC(=O)CC3CC[C@@H]4OC5C7OC8C[C@](CCC9CC(=C)[C@H](CCC(C[C@H]1C)O2)O9)(OC7C4O3)O[C@@H]85)C[C@@H]1O[C@@]2(CC(C)[C@@H]3OC(CC(=O)CCO)C(O)C[C@@H]3O2)CC(C)[C@@H]1O6` (some centres not stated), the GI50 in the test on 786-0 is < 0.001 µM (active); in the test on CAKI-1 it was < 0.001 µM (active); in the test with HCC 2998, < 0.001 µM (active); in the test with HCT-15 it was under 0.001 µM; with KM12, < 0.001 µM (active); in the test on NCI-H522, < 0.001 µM (active). Besides, the GI50 in the test with OVCAR-4, with OVCAR-5, with SF-295, in the test with SF-539, in the test with SK-MEL-2 and in the test with SK-OV-3 was < 0.001 µM (active) throughout. The GI50 in the test with SN12C, in the test with SR, in the test with U-251 and with UACC-257 was < 0.001 µM (active) in each case.

(Values after ChEMBL document CHEMBL1201862, “PubChem BioAssay data set” (2004).)
